According to patent publication US12195596B2, “Hyperbranched boric acid modified phthalonitrile monomer as well as preparation method and use thereof” (priority 2021, dated 2025):

Test: Solubility of phthalonitrile monomers in common organic solvents
Type: physicochemical
Parameters: key: “+” represents “soluble”

Measured: Solubility

N#Cc1ccc(Oc2cccc(OB(Oc3cccc(Oc4ccc(C#N)c(C#N)c4)c3)Oc3cccc(Oc4ccc(C#N)c(C#N)c4)c3)c2)cc1C#N [Example 3]
+: DMF | DMSO | NMP | THF | acetone

N#Cc1ccc(Oc2cccc(OB(Oc3cccc(Oc4ccc(C#N)c(C#N)c4)c3)c3ccccc3)c2)cc1C#N [Example 4]
+: DMF | DMSO | NMP | THF | acetone
